Laboratory results: DBAASP
Values after ≈ are worked out from the molar mass of the structure shown. Blank lines part the entries; values can stand above or below the compound they belong to.

Tests used:
Experiment in all cases: ≥ marks a high value that may be exact or a test limit, other limits are often not marked, values filed in µg/mL are converted to µM
[1] = system: Candida albicans ATCC 2002
[2] = system: Staphylococcus aureus ATCC 43300
[3] = system: Pseudomonas aeruginosa PAO1
[4] = system: Pseudomonas aeruginosa ATCC 27853
Escherichia coli ML-35p = system: Escherichia coli ML-35p
Bacillus subtilis = system: Bacillus subtilis
[5] = system: Staphylococcus aureus ATCC 2592
[6] = system: Candida albicans F7-39/IDE99
Escherichia coli B = system: Escherichia coli B
Staphylococcus aureus = system: Staphylococcus aureus
Pseudomonas aeruginosa = system: Pseudomonas aeruginosa
[7] = system: Staphylococcus aureus NCTC 10788
[8] = system: Candida albicans NCPF 1467
[9] = system: Escherichia coli NCTC 10418
Escherichia coli JW0013 = system: Escherichia coli JW0013
Bacillus subtilis 168 = system: Bacillus subtilis 168

SMILES: CC[C@H](C)[C@H](NC(=O)[C@H](C)NC(=O)[C@@H](NC(=O)[C@@H]1CCCN1C(=O)[C@H](CC(C)C)NC(=O)[C@@H](NC(=O)[C@H](CO)NC(=O)[C@@H](NC(=O)[C@H](C)NC(=O)[C@H](CCSC)NC(=O)[C@H](CCCCN)NC(=O)[C@H](CC(C)C)NC(=O)[C@@H](NC(=O)[C@@H]1CCCN1C(=O)CNC(=O)[C@@H](NC(=O)[C@@H](N)Cc1ccccc1)[C@@H](C)CC)C(C)C)[C@@H](C)O)[C@@H](C)CC)[C@@H](C)O)C(=O)N[C@H]1CSSC[C@@H](C(=O)O)NC(=O)[C@H](CCCCN)NC(=O)[C@H](CCCCN)NC(=O)[C@H](Cc2ccccc2)NC(=O)CNC(=O)[C@H](CCCCN)NC1=O [FIGPVLKMATSILPTAICKGFKKC]
- MIC [1]: 3.9 µM (≈ 9.99 µg/mL)
- MIC [2]: 3.9 µM (≈ 9.99 µg/mL)
- MIC [3]: 3.9 µM (≈ 9.99 µg/mL)
- MIC [4]: 1.95 µM (≈ 5 µg/mL)
- MIC (Escherichia coli ML-35p): 19.5 µM (≈ 50 µg/mL)
- MIC (Bacillus subtilis): 7.79 µM (≈ 20 µg/mL)
- MIC [5]: 1.95 µM (≈ 5 µg/mL)

SMILES: CC[C@H](C)[C@H](NC(=O)[C@H](C)NC(=O)[C@H](C)NC(=O)[C@H](CC(C)C)NC(=O)[C@@H](NC(=O)[C@H](CCCCN)NC(=O)[C@H](CCCNC(=N)N)NC(=O)[C@@H]1CCCN1C(=O)[C@H](CC(C)C)NC(=O)CN)[C@@H](C)CC)C(=O)N[C@@H](C)C(=O)N[C@@H](CCCCN)C(=O)N[C@@H](CCCCN)C(=O)N[C@@H](CCCCN)C(=O)NCC(=O)N[C@@H](CCCCN)C(=O)N[C@H]1CSSC[C@@H](C(=O)O)NC(=O)[C@H](CCCCN)NC(=O)[C@H](C)NC(=O)[C@H](C(C)C)NC(=O)[C@H](CC(C)C)NC(=O)[C@H](CCCCN)NC(=O)[C@H](CC(C)C)NC(=O)[C@@H]2CCCN2C(=O)CNC(=O)[C@H](CCCCN)NC1=O [GLPRKILAAIAKKKGKCKGPLKLVAKC]
- MIC [6]: ≥ 50 µM
- MIC (Escherichia coli B): ≥ 100 µM
- MIC (Bacillus subtilis): 4.2 µM (≈ 11.9 µg/mL)
- MIC (Staphylococcus aureus): > 100 µM
- MIC (Pseudomonas aeruginosa): > 100 µM

SMILES: CC[C@H](C)[C@H](NC(=O)[C@H](C)NC(=O)CNC(=O)[C@H](Cc1ccccc1)NC(=O)[C@@H](N)Cc1ccccc1)C(=O)N[C@@H](C)C(=O)N[C@@H](C)C(=O)N[C@@H](C)C(=O)N[C@@H](CC(C)C)C(=O)N1CCC[C@H]1C(=O)N[C@@H](Cc1cnc[nH]1)C(=O)N[C@H](C(=O)N[C@H](C(=O)N[C@@H](CO)C(=O)N[C@@H](C)C(=O)N[C@H](C(=O)N[C@@H](CCCCN)C(=O)N[C@@H](CC(N)=O)C(=O)N[C@@H](C)C(=O)N[C@@H](CC(C)C)C(=O)O)[C@@H](C)CC)[C@@H](C)CC)C(C)C [FFGAIAAALPHVISAIKNAL]
- MIC [7]: 16 µM (≈ 32.4 µg/mL)
- MIC [8]: ≥ 120 µM

SMILES: CC[C@H](C)[C@H](NC(=O)CNC(=O)[C@@H]1CCCN1C(=O)[C@H](CC(C)C)NC(=O)[C@H](C)NC(=O)[C@H](CC(N)=O)NC(=O)[C@H](CCCCN)NC(=O)[C@H](Cc1ccccc1)NC(=O)[C@H](C)NC(=O)[C@H](CO)NC(=O)[C@H](CC(C)C)NC(=O)[C@@H](NC(=O)CN)C(C)C)C(=O)N[C@@H](CCSC)C(=O)N[C@@H](CCCCN)C(=O)N[C@H](C(=O)N[C@H](C(=O)N[C@H](C(N)=O)C(C)C)[C@@H](C)CC)[C@@H](C)CC [GVLSAFKNALPGIMKIIV]
- MIC [7]: 4.28 µM (≈ 8 µg/mL)
- MIC [9]: ≥ 34.2 µM
- MIC [8]: 8.55 µM (≈ 16 µg/mL)

SMILES: CSCC[C@H](NC(=O)CNC(=O)[C@H](Cc1ccccc1)NC(=O)[C@H](C)N)C(=O)N[C@@H](C)C(=O)N[C@@H](CC(C)C)C(=O)N[C@@H](CCCCN)C(=O)N[C@@H](CC(C)C)C(=O)N[C@@H](CC(C)C)C(=O)N[C@@H](CCCCN)C(=O)N[C@@H](CCCCN)C(=O)N[C@H](C(=O)N[C@@H](CC(C)C)C(N)=O)C(C)C [AFGMALKLLKKVL]
- MIC [6]: 10 µM (≈ 14.3 µg/mL)
- MIC (Escherichia coli B): 4.7 µM (≈ 6.73 µg/mL)
- MIC (Bacillus subtilis 168): 1.3 µM (≈ 1.86 µg/mL)
- MIC (Staphylococcus aureus): 4.7 µM (≈ 6.73 µg/mL)
- MIC (Pseudomonas aeruginosa): 38.3 µM (≈ 54.8 µg/mL)

SMILES: CC[C@H](C)[C@H](NC(=O)[C@H](CO)NC(=O)CNC(=O)CNC(=O)[C@@H](NC(=O)[C@H](CC(C)C)NC(=O)[C@H](CO)NC(=O)[C@@H]1CCCN1C(=O)[C@@H](NC(=O)[C@H](CC(C)C)NC(=O)[C@H](CO)NC(=O)[C@H](CC(C)C)NC(=O)[C@@H](N)Cc1ccccc1)[C@@H](C)CC)C(C)C)C(=O)N[C@@H](CO)C(=O)N[C@@H](C)C(=O)N[C@@H](Cc1ccccc1)C(=O)N[C@@H](CCCCN)C(=O)O [FLSLIPSLVGGSISAFK]
- MIC [7]: ≥ 120 µM
- MIC [9]: ≥ 160 µM
- MIC [8]: ≥ 160 µM

SMILES: CC[C@H](C)[C@H](NC(=O)[C@H](CC(C)C)NC(=O)[C@H](CO)NC(=O)[C@@H](NC(=O)[C@H](CC(C)C)NC(=O)[C@H](C)NC(=O)[C@@H]1CCCN1C(=O)[C@@H](NC(=O)[C@H](CC(C)C)NC(=O)[C@H](Cc1ccccc1)NC(=O)[C@@H]1CCCN1C(=O)[C@H](CC(C)C)NC(=O)[C@@H](N)Cc1ccccc1)[C@@H](C)CC)[C@@H](C)O)C(=O)N[C@@H](CO)C(=O)N[C@@H](CO)C(=O)N[C@@H](CC(C)C)C(N)=O [FLPFLIPALTSLISSL]
- MIC [7]: ≥ 50 µM
- MIC [8]: ≥ 150 µM

Results, then the compound that gave them:

- MIC (Escherichia coli JW0013): 0.628 µM (≈ 1.6 µg/mL)
SMILES: CC[C@H](C)[C@H](NC(=O)[C@H](CCCN=C(N)N)NC(=O)[C@H](CCCN=C(N)N)NC(=O)[C@@H]1CCCN1C(=O)[C@@H]1CCCN1C(=O)[C@H](CCCN=C(N)N)NC(=O)[C@H](CCCN=C(N)N)NC(=O)[C@H](CCCN=C(N)N)NC(=O)[C@@H]1CCCN1C(=O)[C@H](CC(C)C)NC(=O)[C@H](Cc1ccc(O)cc1)NC(=O)[C@H](Cc1cnc[nH]1)NC(=O)[C@H](CCCN=C(N)N)NC(=O)[C@H](CCCCN)NC(=O)[C@H](CC(=O)O)NC(=O)[C@@H](N)C(C)C)C(=O)N[C@@H](Cc1ccc(O)cc1)C(=O)N[C@@H](CC(N)=O)C(=O)N[C@@H](CCCN=C(N)N)C(N)=O [VDKRHYLPRRRPPRRIYNR]

- MIC (Escherichia coli JW0013): 0.687 µM (≈ 1.7 µg/mL)
SMILES: CC[C@H](C)[C@H](NC(=O)[C@H](CCCN=C(N)N)NC(=O)[C@H](CCCN=C(N)N)NC(=O)[C@@H]1CCCN1C(=O)[C@@H]1CCCN1C(=O)[C@H](CCCN=C(N)N)NC(=O)[C@H](CCCN=C(N)N)NC(=O)[C@H](CCCN=C(N)N)NC(=O)[C@@H]1CCCN1C(=O)[C@H](CC(C)C)NC(=O)[C@H](CCCN=C(N)N)NC(=O)[C@@H]1CCCN1C(=O)[C@H](CCCCN)NC(=O)[C@H](CCCCN)NC(=O)[C@H](CC(=O)O)NC(=O)[C@@H](N)C(C)C)C(=O)N[C@@H](Cc1ccc(O)cc1)C(=O)N[C@@H](CC(N)=O)C(=O)N[C@@H](CCCN=C(N)N)C(N)=O [VDKKPRLPRRRPPRRIYNR]

- MIC (Escherichia coli JW0013): 0.481 µM (≈ 1.2 µg/mL)
SMILES: CC[C@H](C)[C@H](NC(=O)[C@H](CCCN=C(N)N)NC(=O)[C@H](CCCN=C(N)N)NC(=O)[C@@H]1CCCN1C(=O)[C@@H]1CCCN1C(=O)[C@H](CCCN=C(N)N)NC(=O)[C@H](CCCN=C(N)N)NC(=O)[C@H](CCCN=C(N)N)NC(=O)[C@@H]1CCCN1C(=O)[C@H](CCCCN)NC(=O)[C@H](Cc1ccc(O)cc1)NC(=O)[C@@H]1CCCN1C(=O)[C@H](CCCCN)NC(=O)[C@H](CCCCN)NC(=O)[C@H](CC(=O)O)NC(=O)[C@@H](N)C(C)C)C(=O)N[C@@H](Cc1ccc(O)cc1)C(=O)N[C@@H](CC(N)=O)C(=O)N[C@@H](CCCN=C(N)N)C(N)=O [VDKKPYKPRRRPPRRIYNR]

- MIC (Escherichia coli JW0013): 1.98 µM (≈ 4.8 µg/mL)
SMILES: CC[C@H](C)[C@H](NC(=O)[C@H](CCCN=C(N)N)NC(=O)[C@H](CCCN=C(N)N)NC(=O)[C@@H]1CCCN1C(=O)[C@@H]1CCCN1C(=O)[C@H](CCCN=C(N)N)NC(=O)[C@@H]1CCCN1C(=O)[C@H](CCCN=C(N)N)NC(=O)[C@@H]1CCCN1C(=O)[C@H](CC(C)C)NC(=O)[C@H](Cc1ccc(O)cc1)NC(=O)[C@@H]1CCCN1C(=O)[C@@H]1CCCN1C(=O)[C@H](CCCCN)NC(=O)[C@H](Cc1ccccc1)NC(=O)[C@@H](N)C(C)C)C(=O)N[C@@H](Cc1ccc(O)cc1)C(=O)N[C@@H](CC(N)=O)C(=O)N[C@@H](CCCN=C(N)N)C(N)=O [VFKPPYLPRPRPPRRIYNR]

- MIC (Escherichia coli JW0013): 1.24 µM (≈ 3.1 µg/mL)
SMILES: CC[C@H](C)[C@H](NC(=O)[C@H](CCCN=C(N)N)NC(=O)[C@H](CCCN=C(N)N)NC(=O)[C@@H]1CCCN1C(=O)[C@@H]1CCCN1C(=O)[C@H](CCCN=C(N)N)NC(=O)[C@H](CCCCN)NC(=O)[C@H](CCCN=C(N)N)NC(=O)[C@@H]1CCCN1C(=O)[C@H](CCCCN)NC(=O)[C@H](Cc1ccc(O)cc1)NC(=O)[C@@H]1CCCN1C(=O)[C@H](CCCN=C(N)N)NC(=O)[C@H](CCCCN)NC(=O)[C@H](CC(=O)O)NC(=O)[C@@H](N)C(C)C)C(=O)N[C@@H](Cc1ccc(O)cc1)C(=O)N[C@@H](CC(N)=O)C(=O)N[C@@H](CCCN=C(N)N)C(N)=O [VDKRPYKPRKRPPRRIYNR]
